# Test results: US20170290891A1, “METHOD OF BONE REGENERATION OR BONE AUGMENTATION” (TOYOBO CO., LTD., priority 2016, published 2017)
# Columns and labels:
# local bone formation = details: subcutaneous administration of PTH; NPL 2; cited from earlier work
# [1] = system: standardized full-thickness bone defect of the calvarium; assay: Test Example 1: rat calvarium bone defect, OCP or β-TCP collagen composite + teriparatide subcutaneous injection; format: in vivo, Male Wistar rats
# Description: Male Wistar rats (12 weeks old) were each intraperitoneally anesthetized, and a skin incision and a periosteal incision were made in the calvarium part to expose the calvarium. A standardized full-thickness bone defect (diameter: about 9 mm), for which spontaneous recovery could not be expected, was created. Then, one OCP/collagen composite disc produced in Production Example 2 or one β-TCP/collagen composite disc produced in Production Example 3 was implanted therein. As the control, rats in which only a bone defect was created, and no sample was implanted (untreated group) were prepared. After the sample was implanted, the periosteum and skin were sutured, and the surgery was completed. […] In the rats of the teriparatide subcutaneous injection group, 10 μg/kg of the teriparatide prepared in Production Example 5 was subcutaneously injected immediately after surgery and every day thereafter. Subcutaneous injection was performed in such a manner that the thawed teriparatide solution was sucked by a 1-mL syringe (27 G injection needle), the back skin was sterilized with a dilute Hibitane solution, and then a considerable amount of teriparatide solution was injected subcutaneously in the back. The observation period after surgery was 8 weeks for each group, and 5 rats were used in each period. […] Similarly, after CT photography 8 weeks after surgery, the rats were euthanized under anesthesia with an excess amount of pentobarbital. […] Then, tissue sections (thickness: […]) cut in the frontal plane were prepared, and a histological search was performed by hematoxylin-eosin staining. Further, using the plural tissue sections corresponding to the center of the defect of each sample, the ratio of new bone (n-Bone %) in the created defect was examined by histological quantification. Variance analysis, etc., were conducted using the average value and standard deviation of n-Bone % in each group, and a significance test was conducted. The significance level was set at 5%.
smiles,measurement,setting,value
CC[C@H](C)[C@H](NC(=O)[C@H](CCC(=O)O)NC(=O)[C@H](CO)NC(=O)[C@@H](NC(=O)[C@@H](N)CO)C(C)C)C(=O)N[C@@H](CCC(N)=O)C(=O)N[C@@H](CC(C)C)C(=O)N[C@@H](CCSC)C(=O)N[C@@H](Cc1cnc[nH]1)C(=O)N[C@@H](CC(N)=O)C(=O)N[C@@H](CC(C)C)C(=O)NCC(=O)N[C@@H](CCCCN)C(=O)N[C@@H](Cc1cnc[nH]1)C(=O)N[C@@H](CC(C)C)C(=O)N[C@@H](CC(N)=O)C(=O)N[C@@H](CO)C(=O)N[C@@H](CCSC)C(=O)N[C@@H](CCC(=O)O)C(=O)N[C@@H](CCCN=C(N)N)C(=O)N[C@H](C(=O)N[C@@H](CCC(=O)O)C(=O)N[C@@H](Cc1c[nH]c2ccccc12)C(=O)N[C@@H](CC(C)C)C(=O)N[C@@H](CCCN=C(N)N)C(=O)N[C@@H](CCCCN)C(=O)N[C@@H](CCCCN)C(=O)N[C@@H](CC(C)C)C(=O)N[C@@H](CCC(N)=O)C(=O)N[C@@H](CC(=O)O)C(=O)N[C@H](C(=O)N[C@@H](Cc1cnc[nH]1)C(=O)N[C@@H](CC(N)=O)C(=O)N[C@@H](Cc1ccccc1)C(=O)O)C(C)C)C(C)C [teriparatide],local bone formation,local bone formation,significantly promoted
same,ratio of new bone (n-Bone %) in the defect,"[1]; 8 weeks after surgery, PTH groups: teriparatide 10 μg/kg subcutaneously every day, FIG. 5",31.1±10.2%
same,"X-ray photographs of the bone defect sites, living state (radiopaque image)","[1]; FIG. 1, PTH groups: teriparatide 10 μg/kg s.c. daily",radiopaque images in the defects were equally scarce
same,X-ray photographs of the calvarium and the surrounding tissue (radiopaque image),"[1]; FIG. 2, PTH groups: teriparatide 10 μg/kg s.c. daily",their thickness was thinner than that of the existing bone
same,"stained pathological specimens, low-magnification (×1.25)","[1]; FIG. 3, 8 weeks after surgery, hematoxylin-eosin",thin bone tissue extending from the defect margins
same,"stained pathological specimens, high-magnification","[1]; FIG. 4, 8 weeks after surgery, hematoxylin-eosin",thin new bone extended from the defect margins
same,new bone formation (summary of FIGS. 1 to 5),"[1]; teriparatide 10 μg/kg s.c. daily, 8 weeks",new bone formation was not observed
